Measured values as given in patent US20250152591A1, “TREATMENT OF HEMATOLOGICAL MALIGNANCIES WITH MENIN INHIBITORS AND P-GLYCOPROTEIN INHIBITORS” (Kura Oncology, Inc., priority 2022, published 2025).
Like-named read-outs stand apart in the source and are kept apart here.

What was measured:
P-gp [1] = biological target: T1, P-gp (Homo sapiens, UniProt P08183); test: MDR1-MDCK P-gp Substrate Identification (Example 2, +/- elacridar); details: MDCK-MDR1, pH 7.4
Procedure: MDCK epithelial cells stably transfected with the human MDR1 gene (the gene encoding for the efflux protein P-gp) were seeded on a Multiscreen™ plate (Millipore, MA, USA) and formed a confluent monolayer over 4 days prior to the experiment. To verify the MDR1-MDCK cell monolayers were properly formed, aliquots of the cell buffers were analyzed by fluorescence to determine the transport of the impermeable dye Lucifer Yellow. Any deviations from control values are reported.
MDR1-MDCK cells were incubated with these buffers for 2 h, and the receiver side buffer was removed for analysis by LC-MS/MS.
The rate of passage of the test compounds through this cell monolayer barrier from apical to basolateral (A→B) in this bi-directional transport assay was used to determine the apparent permeability coefficient (Papp). Receiver, donor, and dosing solution concentrations were quantified using a calibration curve prepared in transport buffer solution (pH 7.4). Papp is calculated as
where dQ/dt is rate of permeation, C0 is initial concentration of test agent, and A is the area of monolayer (0.11 cm^2). The basolateral to apical (B→A) to apical to basolateral (A→B) apparent permeability coefficient ratio
When RE>2 for a tested compound, the tested compound is a potential substrate for P-gp.
Rantinidine, talinolol, warfarin, and loperamide (±2 μM elacridar) were tested as reference compounds and each was tested at a concentration of 10 μM.

P-gp [2] = biological target: T1, P-gp; test: P-gp substrate assessment using MDR1-MDCK monolayers (Example 1, +/- valspodar); format: in vitro ADME; design: expressed in transfected cells; host or cells: MDR1-MDCK cells; details: dog; 12-well plates, QC of MDR1-MDCK cell batch; read-out: Papp (cell batch quality control)
Procedure: MDR1-MDCK cell monolayers were grown to confluence on collagen-coated, microporous membranes in 12-well assay plates. Details of the plates and their certification are shown below. The permeability assay buffer was Hanks' balanced salt solution (HBSS) containing 10 mM HEPES and 15 mM glucose at a pH of 7.4. The buffer in the receiver chamber also contained 1% bovine serum albumin. The dosing solution concentration was 5 μM of test article in the assay buffer+/−1 μM valspodar. Cells were first pre-incubated for 30 min with HBSS containing+/−1 μM valspodar. Cell monolayers were dosed on the apical side (A-to-B) or basolateral side (B-to-A) and incubated at 37° C. with 5% CO2 in a humidified incubator. Samples were taken from the donor and receiver chambers at 120 min. Each determination was performed in duplicate. The flux of lucifer yellow was also measured post-experimentally for each monolayer to ensure no damage was inflicted to the cell monolayers during the flux period. All samples were assayed by LC-MS/MS using electrospray ionization. Liquid chromatography conditions are summarized as follows: Column: Thermo BDS Hypersil C18 30×2.1 mm, […], with guard column; M.P. Buffer: 25 mM ammonium formate buffer, pH 3.5; Aqueous Reservoir (A): 90% water, 10% buffer; Organic Reservoir (B): 90% acetonitrile, 10% buffer; Flow Rate: 350 μL/minute; Total run time: 3.5 min; Autosampler: 10 μL injection volume; Autosampler wash: water/methanol/2-propanol: 1/1/1; with 0.2% formic acid.
The apparent permeability (Papp) and percent recovery were calculated as follows: […]
where, • dCr/dt is the slope of the cumulative concentration in the receiver compartment versus time in μM s^−1; • Vr is the volume of the receiver compartment in cm^3; • Vd is the volume of the donor compartment in cm^3; • A is the area of the insert (1.13 cm^2 for 12-well); • CA is the average of the nominal dosing concentration and the measured 120 minute donor concentration in μM; • CN is the nominal concentration of the dosing solution in μM; • Cr^final is the cumulative receiver concentration in μM at the end of the incubation period; • Cd^final is the concentration of the donor in μM at the end of the incubation period.
Efflux ratio (ER) is defined as Papp (B-to-A)/Papp (A-to-B).
• ER≥2.0 without valspodar, and reduced by ≥50% with valspodar: Positive • ER≥2.0 without valspodar, and reduced by <50% with valspodar: Negative • ER<2.0 without and with valspodar: Negative

MV4;11-Control cell line = test: CellTiter-Glo cell viability assay, MV4;11-Control; format: cell-based; design: unit of the concentration uncertain; details: second set of experiments
Procedure: (§1) The influence of efflux pumps on the antitumor activity of the test compounds at steady state (more clinically relevant) were evaluated using P-gp-transfected AML cells (MV4;11 cells) in 6-day viability assays.
(§2) A P-gp-expressing KMT2A(MLL)-rearranged cell line model was developed by lentiviral transduction of the MV4;11 parental cell line and then selection for either Luciferase ORF (MV4;11-Control) or P-gp ORF (MV4;11-PGP).
(§3) […] Cell viability was measured by CellTiter-Glo® Luminescent Cell Viability Assay (CTG assay, Promega Corp.) and % Viability was quantified by normalizing to the luminescence values of DMSO-only treated cells. The dose-response curves and IC50's were calculated using GraphPad Prism 9.4.1.
(§4) The measured luminescence in the live cells of the MV4;11-Control and MV4;11-PGP cells that were treated with Compound I only (+DMSO), Compound I+posaconazole […], and valspodar (1 mM) are shown in FIGS. 5A and 5B.
(§5) In a second set of experiments, MV4;11-Control and MV4;11-PGP cell lines were treated as described above with five menin inhibitors, including Compound I, SNDX-5613, Compound A, Compound B, and Compound C, at concentrations ranging from 0 to 1000 nM. All tested compounds dropped in potency due to the P-gp expression as shown in FIGS. 6A-6J and in Tables 5 and 6 (indicated by increased IC50 values between “MV4;11-Control (Compound+DMSO)” and “MV4;11-PGP (Compound+DMSO)” entries).

MV4;11-PGP cell line = test: CellTiter-Glo cell viability assay, MV4;11-PGP; format: cell-based; design: unit of the concentration uncertain; details: second set of experiments
Procedure: as §1, §2, §3, §4, §5

MOLM13-Control cell line = test: Cell viability assay, MOLM13-Control; format: cell-based; design: unit of the concentration uncertain; details: 168 h, 7 days
Procedure: (§6) The effects described above were investigated in an AML cell line, MOLM-13, which carries a KA4T2A (MLL)-rearrangement mutation. The P-gp expressing MOLM-13 cell line (MOLM13-PGP) and the Luciferase expressing MOLM-13 cell line (MOLM13-Control) were established by lentivirally transducing P-gp ORF or Luciferase ORF. Cells were plated and treated with test compound for 7 days.

MOLM13-PGP cell line = test: Cell viability assay, MOLM13-PGP; format: cell-based; design: unit of the concentration uncertain; details: 168 h, 7 days
Procedure: as §6

[3] = tested on: OCI-AML3-Control cell line; test: Cell viability assay, OCI-AML3-Control; format: cell-based; design: unit of the concentration uncertain; details: 168 h, 7 days
Procedure: (§7) A third set of experiments was conducted in the cell line OCI-AML3, which carries the W288Cfs*12 mutation in NPM protein. The P-gp expressing OCI-AML3 cell line (OCI-AML3-PGP) and the Luciferase expressing OC-AML3 cell line (OCI-AML3-Control) were established by lentivirally transducing P-gp ORF or Luciferase ORF. Cells were treated with Compound I or SNDX-5613 for 7 days to assess the IC50 values.

OCI-AML3-PGP cell line = test: Cell viability assay, OCI-AML3-PGP; format: cell-based; design: unit of the concentration uncertain; details: 168 h, 7 days
Procedure: as §7

T1 sequence (P08183 whole entry): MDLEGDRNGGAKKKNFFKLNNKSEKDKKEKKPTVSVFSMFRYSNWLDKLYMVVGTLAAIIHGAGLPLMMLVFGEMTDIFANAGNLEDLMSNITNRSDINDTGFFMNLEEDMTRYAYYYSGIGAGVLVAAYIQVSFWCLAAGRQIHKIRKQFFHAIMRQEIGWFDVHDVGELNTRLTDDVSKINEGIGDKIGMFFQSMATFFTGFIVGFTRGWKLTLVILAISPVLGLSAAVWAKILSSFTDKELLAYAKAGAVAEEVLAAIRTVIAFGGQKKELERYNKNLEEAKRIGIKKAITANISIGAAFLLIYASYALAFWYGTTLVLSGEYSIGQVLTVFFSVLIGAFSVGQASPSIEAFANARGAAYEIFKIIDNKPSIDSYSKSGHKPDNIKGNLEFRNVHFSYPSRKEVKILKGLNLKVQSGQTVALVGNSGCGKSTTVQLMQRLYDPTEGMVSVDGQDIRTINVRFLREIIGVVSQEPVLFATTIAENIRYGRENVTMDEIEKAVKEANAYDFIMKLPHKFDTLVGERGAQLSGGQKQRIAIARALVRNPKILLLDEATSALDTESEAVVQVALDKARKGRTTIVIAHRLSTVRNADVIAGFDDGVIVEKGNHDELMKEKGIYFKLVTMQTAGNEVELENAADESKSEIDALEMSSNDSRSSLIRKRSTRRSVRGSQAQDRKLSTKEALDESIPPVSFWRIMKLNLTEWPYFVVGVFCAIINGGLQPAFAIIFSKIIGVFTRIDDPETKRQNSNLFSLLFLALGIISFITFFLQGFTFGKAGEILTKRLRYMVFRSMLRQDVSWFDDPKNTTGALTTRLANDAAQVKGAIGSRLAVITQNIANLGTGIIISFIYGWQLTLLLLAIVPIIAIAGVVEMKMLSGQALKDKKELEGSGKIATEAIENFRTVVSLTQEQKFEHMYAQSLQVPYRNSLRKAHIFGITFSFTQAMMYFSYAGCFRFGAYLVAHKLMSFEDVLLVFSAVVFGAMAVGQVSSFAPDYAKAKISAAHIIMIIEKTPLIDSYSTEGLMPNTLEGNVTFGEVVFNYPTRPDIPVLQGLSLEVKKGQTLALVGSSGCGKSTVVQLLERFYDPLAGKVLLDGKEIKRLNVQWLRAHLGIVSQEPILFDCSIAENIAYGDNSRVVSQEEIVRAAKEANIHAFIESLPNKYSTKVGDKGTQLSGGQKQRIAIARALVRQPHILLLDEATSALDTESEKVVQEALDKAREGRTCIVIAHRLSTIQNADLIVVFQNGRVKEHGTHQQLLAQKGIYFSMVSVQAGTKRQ

`CN(C)C(=O)C(CCN1CCC(O)(c2ccc(Cl)cc2)CC1)(c1ccccc1)c1ccccc1` [Loperamide] gave a Papp A→B at 2 h (P-gp [1]) of 0.792 ×10⁻⁶ cm/s and a Papp B→A at 2 h (P-gp [1]) of 61.2 ×10⁻⁶ cm/s.

`CC(C)NCC(O)COc1cccc2ccccc12` (centres unmarked) [Propanolol] was tested, and the Papp (P-gp [2]) was 15 ×10⁻⁶ cm/s.

`CNC(=C[N+](=O)[O-])NCCSCc1ccc(CN(C)C)o1` [Ranitidine] showed a Papp A→B at 2 h (P-gp [1]) of 0.0514 ×10⁻⁶ cm/s and a Papp B→A at 2 h (P-gp [1]) of 4.35 ×10⁻⁶ cm/s.

Work on `CCN(C(=O)c1cc(F)ccc1Oc1cncnc1N1CC2(CCN(C[C@H]3CC[C@H](NS(=O)(=O)CC)CC3)CC2)C1)C(C)C` [SNDX-5613] yielded an IC50 (MV4;11-Control cell line; 144 h, 0 to 1000 nM, Table 5, read-out: IC50 MV4;11-Control (Compound + DMSO)) of 8.55 nM, an IC50 (MV4;11-Control cell line; 144 h, 0 to 1000 nM, Table 6, read-out: IC50 MV4;11-Control (Compound + DMSO)) of 8.58 nM and an IC50 (MV4;11-Control cell line; posaconazole (1.5 (unit uncertain)), Table 5, read-out: IC50 MV4;11-Control (Compound + posaconazole)) of 7.33 nM. It also gave an IC50 (MV4;11-Control cell line; valspodar (1 (unit uncertain)), Table 6, read-out: IC50 MV4;11-Control (Compound + valspodar)) of 7.61 nM, an IC50 (MV4;11-PGP cell line; 144 h, 0 to 1000 nM, Table 5, read-out: IC50 MV4;11-PGP (Compound + DMSO)) of 183 nM and an IC50 (MV4;11-PGP cell line; 144 h, 0 to 1000 nM, Table 6, read-out: IC50 MV4;11-PGP (Compound + DMSO)) of 173 nM. It also gave an IC50 (MV4;11-PGP cell line; posaconazole (1.5 (unit uncertain)), Table 5, read-out: IC50 MV4;11-PGP (Compound + posaconazole)) of 17.1 nM, an IC50 (MV4;11-PGP cell line; valspodar (1 (unit uncertain)), Table 6, read-out: IC50 MV4;11-PGP (Compound + valspodar)) of 8.15 nM and an IC50 (MOLM13-Control cell line; Table 7, read-out: IC50 MOLM13-Control (Compound + DMSO)) of 30.1 nM. The IC50 (MOLM13-Control cell line; Table 8, read-out: IC50 MOLM13-Control (compound + DMSO)) was 28 nM, the IC50 (MOLM13-Control cell line; posaconazole (1.5 (unit uncertain)), Table 7, read-out: IC50 MOLM13-Control (Compound + posaconazole)) was 24.8 nM and the IC50 (MOLM13-Control cell line; valspodar (1 (unit uncertain)), Table 8, read-out: IC50 MOLM13-Control (Compound + valspodar)) was 29.5 nM. For the same molecule, the IC50 (MOLM13-PGP cell line; Table 7, read-out: IC50 MOLM13-PGP (Compound + DMSO)) was > 900 nM, the IC50 (MOLM13-PGP cell line; posaconazole (1.5 (unit uncertain)), Table 7, read-out: IC50 MOLM13-PGP (Compound + posaconazole)) was 38.6 nM and the IC50 (MOLM13-PGP cell line; valspodar (1 (unit uncertain)), Table 8, read-out: IC50 MOLM13-PGP (Compound + valspodar)) was 37.1 nM. It also gave an IC50 ([3]; Table 9, read-out: IC50 OCI-AML3-Control (Compound + DMSO)) of 25.7 nM, an IC50 ([3]; Table 10, read-out: IC50 OCI-AML3-Control (Compound + DMSO)) of 26.4 nM and an IC50 ([3]; posaconazole (0.75 (unit uncertain)), Table 9, read-out: IC50 OCI-AML3-Control (Compound + posaconazole)) of 38.8 nM. For the same molecule, the IC50 ([3]; valspodar (1 (unit uncertain)), Table 10, read-out: IC50 OCI-AML3-Control (Compound + valspodar)) was 41.5 nM, the IC50 (OCI-AML3-PGP cell line; Table 9, read-out: IC50 OCI-AML3-PGP (Compound + DMSO)) was > 300 nM and the IC50 (OCI-AML3-PGP cell line; posaconazole (0.75 (unit uncertain)), Table 9, read-out: IC50 OCI-AML3-PGP (Compound + posaconazole)) was 47.7 nM. It also gave an IC50 (OCI-AML3-PGP cell line; valspodar (1 (unit uncertain)), Table 10, read-out: IC50 OCI-AML3-PGP (Compound + valspodar)) of 31.7 nM.

`CC(=O)CC(c1ccccc1)c1c(O)c2ccccc2oc1=O` (centres unmarked) [Warfarin] gave a Papp A→B at 2 h (P-gp [1]) of 21.5 ×10⁻⁶ cm/s and a Papp B→A at 2 h (P-gp [1]) of 32.3 ×10⁻⁶ cm/s.
